Entries after “also recorded” stand apart in the source; their conditions may differ.
Assays:
[1] = test system: MCAO cerebral ischemia-reperfusion (IR) mice; experiment: MCAO cerebral ischemia-reperfusion (IR) mouse model, infarct area by TTC staining; assay type: in vivo, C57BL/6J mice; conditions: for Infarct area percentage (%) X ± SD: IR mice, po, QD, from 4 days before surgery, 1 h ischemia, 24 h reperfusion, IR model group 48.42 ± 24.21; for Infarcted area compared with the IR group mice (in words): oral administration
Description: A surgical incision was made in the neck to expose a left common carotid artery (CCA), an internal carotid artery (ICA), and an external carotid artery (ECA). A pre-made filament was inserted through the external carotid artery into the internal carotid artery and advanced to a middle cerebral artery (MCA), causing ischemia in a left brain region. After 60 minutes of occlusion, the filament was removed to achieve reperfusion in the left brain region. FIG. 5 is a schematic diagram illustrating the MCAO cerebral ischemia model using the intraluminal filament approach.
1. Animal anesthesia and neck preparation: the mice were anesthetized by inhalation of 2% isoflurane gas. After muscle relaxation, the four limbs of the mice were fixed to an operating table with 3M medical tape. Depilatory cream was used to remove the hair on a side of the neck, and erythromycin eye ointment was applied to the eyeballs of the mice to prevent eye dryness.
2. Surgical incision: the neck skin was disinfected sequentially with iodophor and 75% alcohol cotton balls. A 3 cm incision was made along the midline of the neck. Under a stereomicroscope, the subcutaneous tissue and fat were bluntly dissected, the superficial fascia and platysma were incised to expose the deep fascia of the neck and the anterior tracheal muscle. After the anterior tracheal muscle was exposed, the deep cervical fascia was torn along an anterior edge of the left sternocleidomastoideole, exposing the sternocleidomastoideole, which was then pulled posteriorly. The dissection continued downward along the sternocleidomastoideole until the deeper carotid sheath was exposed.
3. Vessel exposure and isolation: while avoiding compression of the mouse trachea, the carotid sheath was incised, and the common carotid artery (CCA) was isolated, taking care not to damage the vagus nerve running alongside in the sheath, as simulation or injury to the nerve may cause sudden respiratory arrest in the animal. The dissection continued upward along the common carotid artery, and the external carotid artery was identified at an upper edge of the thyroid cartilage. […] A proximal end of the external carotid artery was gently lifted to expose the internal carotid artery located laterally and inferiorly.
4. […] The internal carotid artery was temporarily clamped with a microvascular clip. […] The branch vessels were coagulated using an electrocautery pen. A distal end of the external carotid artery was permanently ligated with a 6-0 silk ligature, while the proximal end was looped for later use.
5. Filament insertion: a small incision was made at a ligated distal end of the external carotid artery, and the filament was threaded through the incision and tied with the pre-prepared loop ligature. The incision was cut off, and the filament was adjusted and threaded into the internal carotid artery. […] The ligature was tightened to fix the filament and timing started immediately.
6. After suturing the skin, anesthesia was discontinued. Following 60 minutes of ischemia, the filament was removed to complete cerebral ischemia-reperfusion.
7. Close the incision: the incision was closed using interrupted 4-0 sutures, disinfected with iodophor, and 3 mL of saline was injected intraperitoneally for rehydration. Postoperative analgesia jelly was provided, and the mice were kept warm and monitored continuously until they recover from anesthesia.
C57BL/6J male mice, aged 8 weeks, were acclimatized for 1 week and then randomly assigned to 7 groups. Except for eight mice in the blank control group (i.e., the sham-operated control group), the remaining mice underwent MCAO surgery to induce cerebral ischemia and were randomly divided into 6 groups, including an IR model group, a TAK875 group (12 mice per group), and four LY2922470 groups with different concentrations (8 mice per group). […]

[2] = test system: MCAO cerebral ischemia-reperfusion (IR) mice; conditions: male, C57BL/6J, mouse, in vivo, 5 days

SMILES | Infarct area percentage (%) X ± SD ([1]; LY2922470 10 mg/kg) | Infarct area percentage (%) X ± SD ([1]; LY2922470 20 mg/kg) [%] | Infarct area percentage (%) X ± SD ([1]; LY2922470 40 mg/kg) | Infarct area percentage (%) X ± SD ([1]; LY2922470 80 mg/kg) [%] | Infarcted area in the brain compared with the IR group mice (in words) ([1]; LY2922470 10 mg/kg) | Infarcted area in the brain compared with the IR group mice (in words) ([1]; LY2922470 40 mg/kg) | Infarcted area compared with the IR group mice (in words) ([1]; different doses of LY2922470 (10-80 mg/kg)) | Infarct area percentage (%) X ± SD ([1]; TAK875 30 mg/kg) [%] | Infarcted area compared with the IR group mice (in words) ([1]; TAK875 30 mg/kg) | Time of death after reperfusion [2] [h] | Deaths after MCAO cerebral ischemia surgery ([2]; po, 30 mg/kg)
CC#C[C@@H](CC(=O)O)c1ccc(OCc2ccc(CN3CCCc4cccc(OC)c43)s2)cc1 [LY2922470] | 26.77 ± 14.54 (*) % | 30.55 ± 16.52 | 20.4 ± 6.88 (**) % | 31.03 ± 17.8 | significantly reduced | significantly reduced | the infarcted area in the mice was reduced; also recorded: significantly decreased | – | – | – | –
Cc1cc(OCCCS(C)(=O)=O)cc(C)c1-c1cccc(COc2ccc3c(c2)OC[C@H]3CC(=O)O)c1 [TAK875] | – | – | – | – | – | – | – | 48.9 ± 25.13 | no significant decrease in the size of the infarcted area | 18 | one from the TAK875 group died

Reference: US20250195499A1, “METHODS FOR PREVENTING OR TREATING CEREBROVASCULAR DISEASES OR TISSUE ISCHEMIA-REPERFUSION INJURY” (CO., LTD. OF JEAMOON TECHNOLOGY, priority 2022, published 2025)
